Measured values published in patent publication US20080051393A1, “Novel cannabinoids and methods of use” (Eastern Virginia Medical School, priority 2006, published 2008).
Entries after “also recorded” stand apart in the source; their conditions may differ.

What was measured:
[1] = tested on: IOP in a rat glaucoma model; assay: IOP after topical application in chronic rat glaucoma model; format: in vivo, Sprague-Dawley rats; settings: for Effect on IOP compared to baseline or vehicle: all concentrations tested
Source text: (§1) Rat Glaucoma Model. Compared to acute studies, a chronic rat model of glaucoma was generated. The rats were made glaucomatous by ligating three vortex veins (Hosseini, A. et al. (2006) Chronic topical administration of WIN-55-212-2 maintinas a reduction in IOP in a rat glaucoma model without adverse effects. Exp. Eye Res. 82(5):753-9). More specifically, ocular hypertension was induced in Sprague-Dawley rats by ligating 3 of 4 episcleral veins of the right eye using 9.0 nylon sutures under anesthesia with 3 mg/Kg acepromazine and 20 mg/Kg ketamine. Within 6 wk, IOP increased by at least 5 mm Hg in the operated eye. This intervention produced at least a 30% increase in IOP in the operated eye and lasted for up to 60 weeks. During this time, a 30% loss of retinal function was documented by ERG. […] Thus, the model accurately mimics the progressive damage that occurs in patients with glaucoma.
(§2) Measurements of Intraocular Pressure. IOP elevation was measured under mild sedation using a calibrated Goldmann tonometer modified for rats. Three determinations were averaged for each eye. To account for diurnal variation, all IOP's were measured between 11 am and 1 pm during the daily trough period.
Therapeutic Regimen. For IOP Measurements (Topical application) Baseline IOP, heart rate, blood pressure and normal ocular anatomy were documented prior to drug administration. The drugs WIN 55-212-2 (0.1%, 1.0%), O-1812 (0.01%, 0.1%, 1.0%), O-2545 (0.1%, 1.0%) were all dissolved in Tocrisolve™ (vehicle). IOP, heart rate, and blood pressure were measured prior to and after 30, 60 and 120 min after topical administration. Contralateral eyes served as vehicle treated controls.

[2] = Ocular toxicity by slit lamp, MacDonald-Shadduck scoring; format: in vivo, rats; settings: topical
Description: Slit Lamp Biomicroscopy/Digital Photography. Ocular toxicity was measured using slit lamp examination and performed using a modified MacDonald-Shadduck semi-quantitative scale for ocular irritation (McDonald, T. O. and Shadduck, J. A. (1987) Eye irriation. In Dermatotoxicology. 3rd Ed. Mazulli and Maibach. Pp 641-696. Washington, DC: Hemisphere). All eyes were examined by a slit lamp fitted with a color digital camera for digital photography of conjunctiva, cornea, and anterior camber. Images were stored and analyzed using a digital video system (Lombart Instruments DVS System). At baseline and following drug administration, eyes were examined for conjunctival congestion, conjunctival discharge, corneal edema, aqueous flare, fibrin, and iris congestion (Samudre, S. S. et al. (2004) Comparison of Topical Steroids for Acute Anterior Uveitis. J. Ocul. Pharmacol. Ther. 20 (6):533-547). Knowledgeable, masked observers rated each factor on a semi-quantitative four point scale where zero was coded normal, 1=minimal, 2=moderate and 3=severe involvement. Results were compared to the normal baseline evaluation performed before treatment and also with the untreated contralateral eye.

Rat NMDA Model = assay: Rat NMDA model: electroretinogram a-wave; format: in vivo; settings: for Effect of CB1 antagonist SR-141716 on the action of the drug (ERG a-wave): drug 0.1% + SR-141716 2 mM
Description: (§3) Rat NMDA Model. To mimic glaucomatous damage to the retina without a potentially confounding effect on IOP, retinal damage was induced by NMDA in a rat model. Following baseline measurements, e.g. IOP, ERG, slit lamp, fundus photography, heart rate and blood pressure, N-methyl D-aspartate (NMDA, 2 μl of 10 mM) was injected intravitreally to induce RGC damage. […] For positive identification, a hand scanner was used each time the rat was examined. This was necessary since the examiners will be masked as to treatment group. Treatment groups consisted of either NMDA only (control), O-1812 (0.1%) or O-2545 (0.1%), O-1812 (0.1%)+SR-141716 (2 mM), O-2545 (0.1%)+SR-141716 (2 mM), O-1812 (0.1%)+SR-144258 (2 mM) and O-2545 (0.1%)+SR-144258 (2 mM). All experiments were conducted in accordance with the policies of the Institutional Animal Care and Use Committee and the ARVO policy on use of animals in experiments. A minimum of two baseline ERG measurements was recorded 1 wk prior, 1 wk and 2 wk post injection. At the end of each experiment, rats were sacrificed and their eyes were preserved for histological assessment of effects on the retina and optic nerve.
Electroretinogram. In normal retina, full field electroretinography (ERG) stimulates both rods (a-waves) and cones (b-waves). A decrease in their amplitudes indicates retinal functional damage. Scotopic ERG changes were measured in rats that were dark-adapted for at least 4 hours. Eyes were then dilated with 1% atropine after which 0.5% proparacaine and methylcellulose gel (GPS 2.5%) was applied topically. Custom made AgCl electrodes were placed on the apex of the cornea. Stimuli consisted of 10-μsec flashes of unattenuated white light generated by a Ganzfeld bowl photo stimulator. Data from each eye were recorded separately with a driver amplifier and acquired digitally via DASYLab. The contralateral normal eye served as an age matched negative control, e.g. response in a normal, undamaged eye. Differences in amplitude of the a- and b-waves between the operated eye and the contralateral eye were calculated and analyzed by ANOVA and t-test.

[3] = tested on: retinal ganglionic cells (RGC); assay: Rat NMDA model: retinal flat mounts, RGC count; format: in vivo; settings: NMDA model, retinal flat mounts
Description: as §3
Histology. For retinal flat mounts, retinas were dissected from formalin fixed whole eyes, mounted on superfrost glass slides, stained with hematoxylin and eosin and digitally photographed. For analysis, the retina was divided into four quadrants. A minimum of five 50 μm^2 sections per quadrant were used to count cell number. The cell sections were selected to be equidistant from the optic cup for all quadrants. For optic nerve experiments, the optic nerve was dissected at the margin of the optic disk and embedded in cryo media. Sections of 10 μm thickness were cut and mounted on superfrost glass slides and stained with hematoxylin and eosin. The slides were digitally photographed.

optic nerve = assay: Rat NMDA model: optic nerve histology; format: in vivo
Description: as §3
Histology. For retinal flat mounts, retinas were dissected from formalin fixed whole eyes, mounted on superfrost glass slides, stained with hematoxylin and eosin and digitally photographed. […]

[4] = tested on: IOP in a rat glaucoma model; assay: Combination therapy: IOP in a rat glaucoma model; format: in vivo, Sprague Dawley rats; settings: 1.0% topical alone, 120 min
Source text: as §1, §2
Combination Therapy. Since cannabinoids and timolol, which are both known to reduce IOP, have different mechanisms of action, there is potential for a synergistic effect. The combination of timolol and a synthetic cannabinoid (WIN55 212-2, O-1812, or O-2545) to reduce IOP in a chronic rat model of ocular hypertension was examined. Surgical ligation of three of the four episcleral veins in one eye of Sprague Dawley rats caused a long lasting (>44 week) increase in IOP. IOP was measured by Goldmann tonometry at baseline (−30), 0, 30, 60 and 120 min, as was heart rate and blood pressure. For combination therapy, after baseline IOP measurement, timolol 0.5% was applied topically followed 30 min later by WIN55 212-2 1.0%, O-1812 1.0%, or O-2545 1.0%. In another experiment, O-1812 1.0% and O-2545 1.0% were administered simultaneously. An analysis for ocular irritation was performed by slit lamp examination (SLE) at baseline and 150 min.

[5] = Corneal thickness by in vivo confocal microscopy; parameters: species or system rats; settings: 1.0% treated eye (OD) vs contralateral control (OS)
Description: Confocal Microscopy. Repeated noninvasive in vivo visualization of cornea and anterior segments for the presence, location and number of inflammatory cells, as well as fibrin, hyper-refractile bodies and changes in epithelial, stromal and endothelial cell morphology was performed by confocal microscopy. Prior to applanation, rats were sedated and 0.5% proparacaine was applied topically. Data was analyzed using the Metamorph imaging system (Universal Imaging, Downingtown, Pa.).

[6] = tested on: peripheral retinal ganglion cell; settings: cited from earlier work

SMILES | IOP after 60 min (% of Baseline) ([1]; 0.01% topical, 60 min) | IOP after 60 min (% of Baseline) ([1]; 0.10% topical, 60 min) | IOP after 60 min (% of Baseline) ([1]; 1.0% topical, 60 min) | Effect on IOP compared to baseline or vehicle ([1]; topical) | Ocular toxicity / signs of ocular inflammation [2] | Effect of CB1 antagonist SR-141716 on the action of the drug (ERG a-wave) (Rat NMDA Model) | Preservation of the number of RGCs [3] | Protection of optic nerve against NMDA induced damage (optic nerve) | IOP at 120 min (% Baseline) [4] [% Baseline] | Time for which significant IOP reduction was maintained ([1]; 1.0% topical) | Effect on IOP at 30 min ([1]; 1.0% topical) | other results
C[C@H](CO)NC(=O)CCC/C=C\C/C=C\C/C=C\C/C=C\C(C)(C)CCCCC#N [Compound O-1812] | 81.9 ± 2.7 % of Baseline | 78.3 ± 3.1 % of Baseline | 61.9 ± 3.9 % of Baseline | effective; also recorded: significantly reduced IOP | non-toxic | effectively blocked | preserved the number of RGCs | prevented much of the NMDA induced damage | 62.0 ± 0.5 |  |  | Effect on IOP ([1]; 0.01% topical): significantly reduced IOP; Time for which the IOP decrease was maintained ([1]; 0.01% topical): ≤ 60 min; Relative efficacy in IOP reduction ([1]; 1.0% topical): most efficacious; Onset of IOP lowering action ([1]; topical): most rapid onset; Retinal function, A-wave ERG (percentage of the contralateral normal eye) (Rat NMDA Model; NMDA intravitreal, drug 0.1%): more effectively preserved retinal function; Effect of CB2 antagonist SR-144258 on the action of the drug (ERG a-wave) (Rat NMDA Model; drug 0.1% + SR-144258 2 mM): no effect; RGCs preserved [3]: up to 83%
CC1=CC[C@@H]2[C@@H](C1)c1c(O)cc(C(C)(C)CCCCn3ccnc3)cc1OC2(C)C [Compound O-2545] |  | 77.8 ± 2.8 % of Baseline | 76.4 ± 2.8 % of Baseline |  |  | effectively blocked | preserved the number of RGCs | prevented much of the NMDA induced damage | 65.5 ± 0.8 | up to 120 min | significantly reduced IOP | Time for which significant IOP reduction was maintained ([1]; 0.1% topical): up to 120 min; Effect on IOP at 30 min ([1]; 0.1% topical): significantly reduced IOP; Duration of IOP lowering action ([1]; topical): longest duration of action
Cc1c(C(=O)c2cccc3ccccc23)c2cccc3c2n1[C@H](CN1CCOCC1)CO3 [WIN 55-212-2, reference compound] | 83.1 ± 5.5 % of Baseline |  | 58.3 ± 5.6 % of Baseline | effective | non-toxic |  |  |  | 48.8 ± 2.8 | up to 120 min | significantly reduced IOP | Effect on IOP compared to vehicle or baseline ([1]; 0.1% topical): not significantly different from either vehicle or baseline; Effect on IOP at 60 min ([1]; 1.0% topical, 60 min): significantly reduced; Corneal thickness [5]: remained unchanged
N=C(N)NN [aminoguanidine] |  |  |  |  |  |  |  |  |  |  |  | Less peripheral retinal ganglion cell loss compared to untreated rats [6]: 26%
